Patent US11033556B2, “Bicyclic sulfonamides” (priority 2019, dated 2021)

System: genotype D HBV
Experiment: HBV-DNA Antiviral Assay Using HepG2.117 Cells
Type: cell-based
Conditions: Hepatitis B virus, HepG2.117, 96 h, intracellular HBV DNA by qPCR, day 4
Protocol: The following assay procedure describes the HBV antiviral assay, using HepG2.117 cells, which carry a stably integrated genotype D HBV genome under the control of a Tet-off promoter, and intracellular HBV DNA quantification as endpoint. Cell viability is assessed in parallel by measuring the intracellular ATP content using ATPlite (Perkin Elmer).
On day 0, HepG2.117 cells (which are maintained in routine cell culture with doxycycline present in the medium at a final concentration of 1 μg/mL) were seeded in 96-well plates (white with clear bottom) at a density of 2.0×10^4 cells/well (0.1 mL/well) in medium without doxycycline to induce pgRNA transcription and subsequent formation of HBV particles. The cells were incubated at 37° C. and 5% CO2.
On day 1, medium was removed from each well, the test articles were diluted in culture medium without doxcycyline and 100 μL was added to cell culture wells (9 concentrations, 4-fold dilution). For each plate, 6 untreated (merely DMSO) wells were included. The final concentration of DMSO in the culture medium was 2%. Each plate was prepared in duplicate (one for HBV DNA extraction, one for ATPlite measurement). The cells were incubated at 37° C. and 5% CO2 for 3 days.
On day 4, cell viability was assessed using ATPlite and cell lysates were prepared for HBV DNA extraction and subsequent quantification by qPCR.
Medium was removed from each well and 100 μL of 0.33% NP-40 in H2O was added to each well. Plates were sealed, incubated at 4° C. for 5 mins, vortexed extensively and centrifuged briefly. Next, 35 μL of lysate was added to 65 μL QuickExtract DNA Extraction Solution (Epicentre) in a PCR plate for each well. PCR plate was incubated at 65° C. for 6 mins, 98° C. for 2 mins and finally cooled to 4° C. HBV DNA was then quantified by qPCR with HBV-specific primers and probes as specified in Table 4 using the Bio-Rad SSOAdvanced Universal Probes Supermix on a CFX96 machine (Bio-Rad). The PCR cycle program consisted of 95° C. for 3 mins, followed by 40 cycles at 95° C. for 10 sec and 60° C. for 30 sec.
A DNA standard was prepared by dilution of an IDT gBlock corresponding to the amplicon with concentrations ranging from 10^2 to 10^8 copies/input (i.e. per 4 μL) and used to generate a standard curve by plotting Cq values vs. HBV DNA standard concentration. The quantity of HBV DNA in each sample was determined by interpolating from the standard curve.
Cell viability was calculated as follows: % Cell viability=(luminescence value of test sample)/(average luminescence value of 2% DMSO control)×100%. HBV DNA inhibition was calculated as follows: 100−(HBV DNA copy number of test sample)/(average HBV DNA copy number of 2% DMSO control)×100%. No normalization to entecavir was required due to the excellent dynamic window of this assay. The CC50, EC50 and EC90 values were determined by dose-response curves fitted by GraphPad Prism using “log (agonist) vs. response—Variable slope”.

Row | Structure (SMILES) | EC50
1 | C=C[C@H]1CCc2c(cn(C)c2C(=O)Nc2ccc(F)c(C#N)c2)S(=O)(=O)N1 [Compound 8] | 1 to 10 nM
2 | C=C[C@@]1(CO)CCc2c(cn(C)c2C(=O)Nc2ccc(F)c(C(F)(F)F)c2)S(=O)(=O)N1 [Compound 9A] | 10 to 100 nM
3 | C=C[C@]1(CO)CCc2c(cn(C)c2C(=O)Nc2ccc(F)c(C(F)(F)F)c2)S(=O)(=O)N1 [Compound 9B] | 10 to 100 nM
4 | C=C[C@@]1(CO)CCc2c(cn(C)c2C(=O)Nc2ccc(F)c(C#N)c2)S(=O)(=O)N1 [Compound 10A] | 10 to 100 nM
5 | C=C[C@]1(CO)CCc2c(cn(C)c2C(=O)Nc2ccc(F)c(C#N)c2)S(=O)(=O)N1 [Compound 10B] | 10 to 100 nM
6 | C=C[C@](C)(O)[C@H]1CCc2c(cn(C)c2C(=O)Nc2ccc(F)c(C#N)c2)S(=O)(=O)N1 [Compound 11A] | 1 to 10 nM
7 | C=C[C@@](C)(O)[C@H]1CCc2c(cn(C)c2C(=O)Nc2ccc(F)c(C#N)c2)S(=O)(=O)N1 [Compound 11B] | 1 to 10 nM
8 | C#C[C@](C)(O)[C@H]1CCc2c(cn(C)c2C(=O)Nc2ccc(F)c(C#N)c2)S(=O)(=O)N1 [Compound 12A] | 10 to 100 nM
9 | C#C[C@@](C)(O)[C@H]1CCc2c(cn(C)c2C(=O)Nc2ccc(F)c(C#N)c2)S(=O)(=O)N1 [Compound 12B] | 10 to 100 nM
10 | Cn1cc2c(c1C(=O)Nc1ccc(F)c(C#N)c1)OC[C@H](CC=C(F)F)NS2(=O)=O [Compound 13] | 1 to 10 nM
11 | C=C[C@H](O)[C@H]1COc2c(cn(C)c2C(=O)Nc2ccc(F)c(C#N)c2)S(=O)(=O)N1 [Compound 14A] | 1 to 10 nM
12 | C=C[C@@H](O)[C@H]1COc2c(cn(C)c2C(=O)Nc2ccc(F)c(C#N)c2)S(=O)(=O)N1 [Compound 14B] | 1 to 10 nM
13 | C=C[C@]1(C)COc2c(cn(C)c2C(=O)Nc2ccc(F)c(C#N)c2)S(=O)(=O)N1 [Compound 15A] | 1 to 10 nM
14 | C=C[C@@]1(C)COc2c(cn(C)c2C(=O)Nc2ccc(F)c(C#N)c2)S(=O)(=O)N1 [Compound 15B] | 1 to 10 nM
15 | C=CC[C@]1(C)COc2c(cn(C)c2C(=O)Nc2ccc(F)c(C#N)c2)S(=O)(=O)N1 [Compound 16A] | 1 to 10 nM
16 | C=CC[C@@]1(C)COc2c(cn(C)c2C(=O)Nc2ccc(F)c(C#N)c2)S(=O)(=O)N1 [Compound 16B] | 1 to 10 nM
17 | C=CC[C@H](O)[C@H]1COc2c(cn(C)c2C(=O)Nc2ccc(F)c(C#N)c2)S(=O)(=O)N1 [Compound 17A] | 1 to 10 nM
18 | C=CC[C@@H](O)[C@H]1COc2c(cn(C)c2C(=O)Nc2ccc(F)c(C#N)c2)S(=O)(=O)N1 [Compound 17B] | 1 to 10 nM
19 | C#C[C@H](O)[C@H]1COc2c(cn(C)c2C(=O)Nc2ccc(F)c(C#N)c2)S(=O)(=O)N1 [Compound 18] | 1 to 10 nM
20 | CC#C[C@H](O)[C@H]1COc2c(cn(C)c2C(=O)Nc2ccc(F)c(C#N)c2)S(=O)(=O)N1 [Compound 19A] | 1 to 10 nM
21 | CC#C[C@@H](O)[C@H]1COc2c(cn(C)c2C(=O)Nc2ccc(F)c(C#N)c2)S(=O)(=O)N1 [Compound 19B] | 1 to 10 nM
22 | C=C[C@@](O)([C@H]1COc2c(cn(C)c2C(=O)Nc2ccc(F)c(C(F)(F)F)c2)S(=O)(=O)N1)C(F)(F)F [Compound 20] | 1 to 10 nM
23 | C=C[C@](O)([C@@H]1COc2c(cn(C)c2C(=O)Nc2ccc(F)c(C#N)c2)S(=O)(=O)N1)C(F)(F)F [Compound 21] | 10 to 100 nM
24 | CC#C[C@H](O)[C@H]1COc2c(cn(C)c2C(=O)Nc2ccc(F)c(C(F)(F)F)c2)S(=O)(=O)N1 [Compound 22A] | 10 to 100 nM
25 | CC#C[C@@H](O)[C@H]1COc2c(cn(C)c2C(=O)Nc2ccc(F)c(C(F)(F)F)c2)S(=O)(=O)N1 [Compound 22B] | 1 to 10 nM
26 | C=C[C@@]1(C)COc2c(cn(C)c2C(=O)Nc2ccc(F)c(C(F)(F)F)c2)S(=O)(=O)N1 [Compound 23A] | 1 to 10 nM

Row | Structure (SMILES) | EC50
27 | C=C[C@]1(C)COc2c(cn(C)c2C(=O)Nc2ccc(F)c(C(F)(F)F)c2)S(=O)(=O)N1 [Compound 23B] | 1 to 10 nM
28 | C=C[C@H]1COc2c(cn(C)c2C(=O)Nc2ccc(F)c(C(F)(F)F)c2)S(=O)(=O)N1 [Compound 24] | 1 to 10 nM
29 | C=CC[C@@H](O)[C@@H]1COc2c(cn(C)c2C(=O)Nc2ccc(F)c(C#N)c2)S(=O)(=O)N1 [Compound 25A] | 10 to 100 nM
30 | C=CC[C@H](O)[C@@H]1COc2c(cn(C)c2C(=O)Nc2ccc(F)c(C#N)c2)S(=O)(=O)N1 [Compound 25B] | 10 to 100 nM
31 | C=C[C@](O)([C@@H]1COc2c(cn(C)c2C(=O)Nc2ccc(F)c(C(F)(F)F)c2)S(=O)(=O)N1)C(F)(F)F [Compound 26] | 10 to 100 nM
32 | C=C[C@@H](C)[C@H]1COc2c(cn(C)c2C(=O)Nc2ccc(F)c(C#N)c2)S(=O)(=O)N1 [Compound 27A] | 10 to 100 nM
33 | C=C[C@H](C)[C@@H]1COc2c(cn(C)c2C(=O)Nc2ccc(F)c(C#N)c2)S(=O)(=O)N1 [Compound 27B] | 1 to 10 nM
34 | C=C[C@H](C)[C@H]1COc2c(cn(C)c2C(=O)Nc2ccc(F)c(C#N)c2)S(=O)(=O)N1 [Compound 27C] | 10 to 100 nM
35 | C=C[C@@H](C)[C@@H]1COc2c(cn(C)c2C(=O)Nc2ccc(F)c(C#N)c2)S(=O)(=O)N1 [Compound 27D] | < 1 nM
36 | C=C[C@@](C)(O)[C@H]1COc2c(cn(C)c2C(=O)Nc2ccc(F)c(C#N)c2)S(=O)(=O)N1 [Compound 28A] | 1 to 10 nM
37 | C=C[C@](C)(O)[C@H]1COc2c(cn(C)c2C(=O)Nc2ccc(F)c(C#N)c2)S(=O)(=O)N1 [Compound 28B] | 1 to 10 nM
38 | C=C[C@@](C)(O)[C@H]1COc2c(cn(C)c2C(=O)Nc2ccc(F)c(C(F)(F)F)c2)S(=O)(=O)N1 [Compound 29A] | 10 to 100 nM
39 | C=C[C@](C)(O)[C@H]1COc2c(cn(C)c2C(=O)Nc2ccc(F)c(C(F)(F)F)c2)S(=O)(=O)N1 [Compound 29B] | 1 to 10 nM
40 | C=C[C@@]1(CO)COc2c(cn(C)c2C(=O)Nc2ccc(F)c(C#N)c2)S(=O)(=O)N1 [Compound 30A] | 1 to 10 nM
41 | C=C[C@]1(CO)COc2c(cn(C)c2C(=O)Nc2ccc(F)c(C#N)c2)S(=O)(=O)N1 [Compound 30B] | 10 to 100 nM
42 | C=C[C@@]1(CO)COc2c(cn(C)c2C(=O)Nc2ccc(F)c(C(F)(F)F)c2)S(=O)(=O)N1 [Compound 31A] | 1 to 10 nM
43 | C=C[C@]1(CO)COc2c(cn(C)c2C(=O)Nc2ccc(F)c(C(F)(F)F)c2)S(=O)(=O)N1 [Compound 31B] | 1 to 10 nM
44 | C=C(C)[C@H]1COc2c(cn(C)c2C(=O)Nc2ccc(F)c(C#N)c2)S(=O)(=O)N1 [Compound 32] | 1 to 10 nM
45 | C=C(C)[C@H]1COc2c(cn(C)c2C(=O)Nc2ccc(F)c(C(F)(F)F)c2)S(=O)(=O)N1 [Compound 33] | 1 to 10 nM
46 | C=CC(O)([C@H]1COc2c(cn(C)c2C(=O)Nc2ccc(F)c(C#N)c2)S(=O)(=O)N1)C(F)(F)F (stereo partly drawn) [Compound 34] | < 1 nM
47 | C#C[C@](C)(O)[C@H]1COc2c(cn(C)c2C(=O)Nc2ccc(F)c(C#N)c2)S(=O)(=O)N1 [Compound 35A] | 1 to 10 nM
48 | C#C[C@@](C)(O)[C@H]1COc2c(cn(C)c2C(=O)Nc2ccc(F)c(C#N)c2)S(=O)(=O)N1 [Compound 35B] | 1 to 10 nM
49 | C#C[C@](C)(O)[C@H]1COc2c(cn(C)c2C(=O)Nc2ccc(F)c(C(F)(F)F)c2)S(=O)(=O)N1 [Compound 36A] | 10 to 100 nM
50 | C#C[C@@](C)(O)[C@H]1COc2c(cn(C)c2C(=O)Nc2ccc(F)c(C(F)(F)F)c2)S(=O)(=O)N1 [Compound 36B] | 1 to 10 nM
51 | C#CC(O)([C@H]1COc2c(cn(C)c2C(=O)Nc2ccc(F)c(C#N)c2)S(=O)(=O)N1)C(F)(F)F (stereo partly drawn) [Compound 37] | 10 to 100 nM
